{"source": "paper PMC10667816", "about": "“A Cell‐Penetrant Peptide Disrupting the Transcription Factor CP2c Complexes Induces Cancer‐Specific Synthetic Lethality” (Advanced Science, 2023)", "key": {"[1]": {"tested_on": "normal male and female mice", "experiment": "In vivo toxicity test of ACP52C", "set-up": "species or system mouse", "conditions": "ICR mice, 100 or 1000 mg kg^−1 intravenously, once or twice with four‐day interval; H&E of major organs", "protocol": "To assess the toxicity of ACP52C, twelve 6‐weeks‐old ICR mice (six males and six females) were divided into three groups, each containing two mice: one group received a saline, another received 100 mg kg^−1 of ACP52C, and the third received 1000 mg kg^−1 of ACP52C. For each group, one mouse was intravenously injected once, and the other one was intravenously injected twice with a four‐day interval between injections. At the time of sacrifice, major organs were analyzed by H&E staining. To assess the repeated toxicity of ACP52CGK, twenty‐four 6‐weeks‐old ICR mice (twelve males and twelve females) were used, dividing them into two groups of six mice each: one group received saline, and the other received 100 mg kg^−1 of ACP52CGK. […] Body weight, water and feed consumption were measured every 3 days after injection. […] Major organs were weighed and analyzed by H&E staining. H&E‐stained tissue sections were analyzed and photographed, and the representative histological images were recorded. […]\nA-C) Anticancer effects of ACP52C in xenograft model mice. […] Data are expressed as means ± SD, and the number […]\neffective tumor targeting. […] The estimated residual levels of Cy5-ACP52C in the body over time were determined by quantifying the fluorescence intensity of images (right). RL50 represents the required time for a 50% retention of fluorescence level. (F) Bright field and fluorescence images of the […]"}, "[2]": {"tested_on": "A431 epidermoid carcinoma", "experiment": "A431 CDX mouse model", "type": "in vivo", "conditions": "intravenous injection every 2 or 3 days from day 14", "protocol": "Animal experiments were conducted in accordance with ethical guidelines, and all protocols were approved by the Institutional Animal Care and Use Committee under Hanyang University (approval numbers, 2014‐0016A, 2018‐0049A, 2018‐0207A, and 2019‐0169A), Chung‐Ang University (approval number, 2015‐00022), Chungbuk University (approval number, CBNUA‐1072‐17‐02), and Konkuk University (approval number, KU17130). To establish xenograft mice models, Hep3B, A431, U343, and PC9 cells were subcutaneously injected into the flank of Balb/c nude mice. For the MDA‐MB‐231 (LM1) cell line, it was implanted into the mammary fat pad of immunodeficient mice (NPG mice). […] Tumor volume was calculated using the formula of length × width^2)/2. […] The in vivo administration amount was determined based on the concentration of ACP52C confirmed at the cellular level, which was 2 µM. […] For ACP52C derivatives, the amount was adjusted to ensure a similar molar quantity of peptide injection, taking their molecular weights into account. For instance, in the case of ACP52CGK, ≈1.67 times the quantity was used compared to ACP52C to achieve an equivalent molar quantity. […] Hematoxylin and eosin (H&E)‐stained tissue sections were analyzed and photographed, and the representative histological images were recorded. […]"}, "[3]": {"tested_on": "normal cells derived from humans or mouse", "experiment": "MTT growth inhibition in normal cells", "type": "cell-based, human", "conditions": "concentrations up to 10 µM", "excerpt": "Figure S3. Anticancer effect of Pep #5-2 truncated and substitution mutants\nA) Names and peptide sequences of each mutant. Peptides corresponding to each Pep #5-2 truncated or substitution mutant are linked to a cell penetration peptide, iRGD (highlighted with yellow boxes). B-E) Cell growth inhibition profiles and GI50 values of each mutant in representative cancer cell lines. GI50 values estimated from duplicated data are expressed as means ± SD . Data are presented as means ± SD of two independent biological replicates. Anticancer effect of ACP52C, ACP52-51C, ACP52-52C, and ACP52-4C (B), amino acid substitution mutants of ACP52 -4C (C), and ACP52C, ACP52-4C, ACP52-31C, and ACP52-32C (D). Cell growth inhibition was teste d in cells using MTT assay over peptide dose at 48 h after peptide treatment, and GI50 values estimated from duplicated data are expressed as means ± SD. ( E) Summary of GI50 values of each mutant in representative cancer cell lines. GI 50 values estimated from duplicated data are expressed as means ± SD. Two-tailed unpaired Student’s t-tests, ***P < 0.001; ns: non-significant. […]"}}, "note": "Where a SMILES comes first, the peptide text is derived from it.", "data": [{"smiles": "CC(=O)N[C@@H](CC(N)=O)C(=O)N[C@@H](Cc1ccc(O)cc1)C(=O)N1CCC[C@H]1C(=O)N[C@@H](CCC(N)=O)C(=O)N[C@@H](CCCNC(=N)N)C(=O)N1CCC[C@H]1C(=O)N[C@@H](CS)C(=O)N[C@@H](CCCNC(=N)N)C(=O)NCC(=O)N[C@@H](CC(=O)O)C(=O)N[C@@H](CCCCN)C(=O)NCC(=O)N1CCC[C@H]1C(=O)N[C@@H](CC(=O)O)C(=O)N[C@@H](CS)C(N)=O", "note": "[ACP52C] (Ac-NYPQRPCRGDKGPDC-NH2)", "values": [{"measurement": "adverse side effects", "setting": "[1]", "value": "did not exhibit any adverse side effects"}, {"measurement": "tumor weight", "setting": "[2]", "value": "significantly reduced tumor weight"}, {"measurement": "growth inhibition", "setting": "[3]", "value": "did not show any growth inhibition"}]}]}
